In the assay the target is human M3 receptors (Homo sapiens, UniProt P20309). The class given is binding. Conditions: human clonal line TE671/RD.

The record followed here is patent US7732607B2 (priority 2005, dated 2010).

Chain of human M3 receptors (P20309 whole entry): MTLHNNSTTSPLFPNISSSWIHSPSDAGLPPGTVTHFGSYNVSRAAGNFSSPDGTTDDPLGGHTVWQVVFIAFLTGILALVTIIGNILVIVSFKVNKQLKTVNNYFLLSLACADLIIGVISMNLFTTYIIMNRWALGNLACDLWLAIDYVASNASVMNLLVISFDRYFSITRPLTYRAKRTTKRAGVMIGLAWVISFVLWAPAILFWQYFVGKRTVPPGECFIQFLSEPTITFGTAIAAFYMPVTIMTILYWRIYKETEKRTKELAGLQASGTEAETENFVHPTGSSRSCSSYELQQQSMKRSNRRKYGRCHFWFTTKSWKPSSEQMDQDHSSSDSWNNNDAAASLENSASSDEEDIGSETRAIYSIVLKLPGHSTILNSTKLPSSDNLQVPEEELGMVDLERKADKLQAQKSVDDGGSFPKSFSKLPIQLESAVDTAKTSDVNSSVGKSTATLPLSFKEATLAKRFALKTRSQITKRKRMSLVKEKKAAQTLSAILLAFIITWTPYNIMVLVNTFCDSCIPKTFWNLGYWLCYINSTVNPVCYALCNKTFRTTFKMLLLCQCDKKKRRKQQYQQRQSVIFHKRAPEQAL

Take `O=C(c1cc2ccccc2o1)N1CC(c2cccnc2)C2C1C1CCN2CC1` (stereo not drawn) [Compound 1, 5-(Benzofuran-2-ylcarbonyl)-3-pyridin-3-yl-1,5-diazatricyclo[5.2.2.0<2,6>]undecane]: the “ability to inhibit [3H]QNB binding at muscarinic sites” value is “None of the compounds was able to inhibit [^3H]QNB binding”.
Regarding `COc1cccc2cc(C(=O)N3CC(c4cccnc4)C4C3C3CCN4CC3)oc12` (stereo not drawn) [Compound 2, 5-(7-Methoxybenzofuran-2-ylcarbonyl)-3-pyridin-3-yl-1,5-diazatricyclo[5.2.2.0<2,6>]undecane], the “ability to inhibit [3H]QNB binding at muscarinic sites” value was “None of the compounds was able to inhibit [^3H]QNB binding”.
The value for `O=C(c1c[nH]c2ccccc12)N1CC(c2cccnc2)C2C1C1CCN2CC1` (stereo not drawn) [Compound 4, 5-(1H-Indol-3-ylcarbonyl)-3-pyridin-3-yl-1,5-diazatricyclo[5.2.2.0<2,6>]undecane] was “None of the compounds was able to inhibit [^3H]QNB binding”.
